According to patent EP1247803A2, “Indolinone compounds suitable for modulation of protein kinases” (Sugen, Inc., priority 1996, dated 1998):

Biological target: T1, EGFR (Homo sapiens, UniProt P00533)
T1 construct: Add 7 ug A431 cell lysate per well (EGFR source); endogenous in cells; host or cells: A431
Assay: EGFR ELISA assay (in vitro kinase activity, EGFR captured from A431 cell lysate)
Format: biochemical
Parameters: concentration or dose not given beside the values
Outline: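 EGFR from A431 lysate was captured on anti-EGFR antibody-coated plates and preincubated with compounds for 30 min. Autophosphorylation ran 5 min with 3 uM ATP and 5 mM MnCl2 (final), stopped with 20 mM EDTA. Phosphotyrosine was detected by anti-pTyr ELISA with ABTS/H2O2, read at 410 nm.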

T1 sequence (P00533 25-1210): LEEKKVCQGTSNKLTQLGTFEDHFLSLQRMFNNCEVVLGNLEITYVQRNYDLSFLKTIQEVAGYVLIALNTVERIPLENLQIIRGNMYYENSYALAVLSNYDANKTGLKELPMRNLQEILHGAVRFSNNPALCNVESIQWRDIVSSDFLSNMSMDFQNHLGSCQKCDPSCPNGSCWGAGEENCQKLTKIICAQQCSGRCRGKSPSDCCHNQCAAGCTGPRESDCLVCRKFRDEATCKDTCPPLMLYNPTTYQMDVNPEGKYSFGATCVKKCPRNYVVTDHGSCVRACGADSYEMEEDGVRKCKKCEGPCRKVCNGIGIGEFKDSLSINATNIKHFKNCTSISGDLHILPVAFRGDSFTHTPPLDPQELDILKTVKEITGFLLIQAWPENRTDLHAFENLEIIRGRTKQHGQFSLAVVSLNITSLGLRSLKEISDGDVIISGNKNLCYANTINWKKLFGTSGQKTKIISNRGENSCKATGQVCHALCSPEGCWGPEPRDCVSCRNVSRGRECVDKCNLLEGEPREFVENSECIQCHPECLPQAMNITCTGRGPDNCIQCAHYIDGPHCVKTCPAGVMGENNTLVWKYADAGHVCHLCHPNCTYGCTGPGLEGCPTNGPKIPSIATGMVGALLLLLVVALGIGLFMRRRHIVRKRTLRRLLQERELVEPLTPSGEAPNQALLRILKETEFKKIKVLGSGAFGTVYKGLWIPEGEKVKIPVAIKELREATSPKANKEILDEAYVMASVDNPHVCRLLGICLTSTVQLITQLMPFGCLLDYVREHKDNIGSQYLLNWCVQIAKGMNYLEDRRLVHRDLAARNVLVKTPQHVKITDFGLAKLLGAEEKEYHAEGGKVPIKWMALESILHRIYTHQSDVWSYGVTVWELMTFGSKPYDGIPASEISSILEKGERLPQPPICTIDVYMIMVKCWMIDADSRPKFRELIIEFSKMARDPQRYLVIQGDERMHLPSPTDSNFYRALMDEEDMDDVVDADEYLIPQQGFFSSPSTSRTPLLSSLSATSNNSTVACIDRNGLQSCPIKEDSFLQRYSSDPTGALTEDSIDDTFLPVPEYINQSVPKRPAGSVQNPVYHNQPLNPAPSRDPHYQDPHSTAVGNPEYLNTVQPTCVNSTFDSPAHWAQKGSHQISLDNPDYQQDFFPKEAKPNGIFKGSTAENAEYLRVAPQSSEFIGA

SMILES | Biochem EGFR %Inhibition [%]
Cc1c(Br)ccc2c1C(=CC1C=CCCC1)C(=O)N2 (stereo not shown) [10729/C11] | 35.9
CSc1ccc(C=C2C(=O)Nc3ccc(I)cc32)cc1 [10729/B04] | 63.7
O=C1Nc2ccc(CCCl)cc2C1=Cc1cc(C(F)(F)F)ccc1F [10728/G08] | -5.7
O=C1Nc2ccc(I)cc2C1=Cc1cccnc1 [10729/B08] | 53.2
Cc1ccsc1C=C1C(=O)Nc2ccc(I)cc21 [10729/B05] | 50.6
COc1cccc(OC)c1C=C1C(=O)Nc2ccc(S(=O)(=O)Nc3ccc(C(F)(F)F)cc3)cc21 [10728/E03] | 9.5
COc1cc(C=C2C(=O)Nc3ccc(S(=O)(=O)Nc4ccc(C(F)(F)F)cc4)cc32)cc2c1OCO2 [10728/E11] | -5.9
CCOC(=O)c1c(C)[nH]c(C=C2C(=O)Nc3ccc(I)cc32)c1C [10718/B02] | 24.9
Cc1c(Br)ccc2c1C(=Cc1ccncc1)C(=O)N2 [10729/C09] | 33.2
Cc1ccsc1C=C1C(=O)Nc2c(Br)cc(Br)cc21 [10729/A05] | 23.4
COc1ccc2ccccc2c1C=C1C(=O)Nc2ccc(Br)c(C)c21 [10729/C02] | 16.9
COc1ccc2ccccc2c1C=C1C(=O)Nc2ccc(I)cc21 [10729/B02] | 34.9
COc1ccc(OC)c(C=C2C(=O)Nc3ccc(S(=O)(=O)NN4CCOCC4)cc32)c1 [10728/F02] | 4.4
O=C1Nc2ccc(S(=O)(=O)Nc3ccc(C(F)(F)F)cc3)cc2C1=Cc1cc(C(F)(F)F)ccc1F [10728/E08] | 5.1
O=C1Nc2ccc(I)cc2C1=CC1C=CCCC1 (stereo not shown) [10729/B11] | 18.8
COc1cc(N(C)C)ccc1C=C1C(=O)Nc2ccc(S(=O)(=O)Nc3ccc(C(F)(F)F)cc3)cc21 [10728/E05] | 7.4
O=C(O)COc1ccccc1C=C1C(=O)Nc2ccc(CCCl)cc21 [10728/G10] | -12.5
O=C1Nc2ccc(S(=O)(=O)Nc3ccc(C(F)(F)F)cc3)cc2C1=Cc1c(F)cccc1C(F)(F)F [10728/E09] | 0.1
COc1ccc(C=C2C(=O)Nc3ccc(S(=O)(=O)Nc4ccc(C(F)(F)F)cc4)cc32)c2ccccc12 [10729/E03] | 20.1
COc1ccc(OC)c(C=C2C(=O)Nc3ccc(CCCl)cc32)c1 [10728/G02] | -10.2
Cc1c(Br)ccc2c1C(=Cc1cccc(Oc3ccccc3)c1)C(=O)N2 [10729/C06] | 38.2
CNS(=O)(=O)c1ccc2c(c1)C(=Cc1sccc1C)C(=O)N2 [10729/D05] | 22.1
CNS(=O)(=O)c1ccc2c(c1)C(=Cc1ccc(SC)cc1)C(=O)N2 [10729/D04] | 18.8
O=C1Nc2c(Br)cc(Br)cc2C1=Cc1ccco1 [10718/A10] | 41.5
COc1ccc(C=C2C(=O)Nc3ccc(I)cc32)c2ccccc12 [10729/B03] | 38.2

SMILES | Biochem EGFR %Inhibition [%]
O=C1Nc2c(Br)cc(Br)cc2C1=Cc1cccnc1 [10729/A08] | 37.8
CNS(=O)(=O)c1ccc2c(c1)C(=Cc1cc(C(F)(F)F)ccc1F)C(=O)N2 [10728/D08] | 6.9
O=C(O)COc1ccccc1C=C1C(=O)Nc2ccc(S(=O)(=O)Nc3ccc(C(F)(F)F)cc3)cc21 [10728/E10] | -20.8
CNS(=O)(=O)c1ccc2c(c1)C(=Cc1cccc(Oc3ccccc3)c1)C(=O)N2 [10729/D06] | 45.7
CNS(=O)(=O)c1ccc2c(c1)C(=Cc1ccccn1)C(=O)N2 [10729/D07] | 21.4
COc1ccc(C=C2C(=O)Nc3ccc(Br)c(C)c32)c2ccccc12 [10729/C03] | 25.7
Cc1c(O)ccc(C=C2C(=O)Nc3c(Br)cc(Br)cc32)c1O [10718/A09] | -4.1
O=C1Nc2ccc(S(=O)(=O)Nc3ccc(C(F)(F)F)cc3)cc2C1=Cc1cccc(Oc2ccccc2)c1 [10729/E06] | 43.7
COc1ccc2ccccc2c1C=C1C(=O)Nc2ccc(S(=O)(=O)Nc3ccc(C(F)(F)F)cc3)cc21 [10729/E02] | 8.0
COc1cc(C=C2C(=O)Nc3ccc(CCCl)cc32)cc2c1OCO2 [10728/G11] | 16.1
O=C1Nc2c(Br)cc(Br)cc2C1=Cc1cccc(Oc2ccccc2)c1 [10729/A06] | 36.5
CSc1ccc(C=C2C(=O)Nc3ccc(S(=O)(=O)Nc4ccc(C(F)(F)F)cc4)cc32)cc1 [10729/E04] | 19.5
CNS(=O)(=O)c1ccc2c(c1)C(=CC1C=CCCC1)C(=O)N2 (stereo not shown) [10729/D11] | 19.2
CNS(=O)(=O)c1ccc2c(c1)C(=Cc1ccc(N3CCCC3)cc1)C(=O)N2 [10729/D10] | 11.3
O=C1Nc2c(Br)cc(Br)cc2C1=Cc1ccncc1 [10729/A09] | 25.7
Cc1c(Br)ccc2c1C(=Cc1ccc(N3CCCC3)cc1)C(=O)N2 [10729/C10] | 45.7
COc1ccc(C=C2C(=O)Nc3c(Br)cc(Br)cc32)c2ccccc12 [10729/A03] | 27.0
COc1ccc2ccccc2c1C=C1C(=O)Nc2c(Br)cc(Br)cc21 [10729/A02] | 10.0
COc1cc(N(C)C)ccc1C=C1C(=O)Nc2ccc(CCCl)cc21 [10728/G05] | 7.2
O=C1Nc2c(Br)cc(Br)cc2C1=CC1C=CCCC1 (stereo not shown) [10729/A11] | 15.5
O=C1Nc2c(Br)cc(Br)cc2C1=Cc1ccc([N+](=O)[O-])o1 [10718/A11] | 21.2
CNS(=O)(=O)c1ccc2c(c1)C(=Cc1cccnc1)C(=O)N2 [10729/D08] | 10.3
O=C1Nc2ccc(S(=O)(=O)Nc3ccc(C(F)(F)F)cc3)cc2C1=Cc1cccc(C(F)(F)F)c1F [10728/E07] | 21.8
CNS(=O)(=O)c1ccc2c(c1)C(=Cc1ccncc1)C(=O)N2 [10729/D09] | 22.1
O=C1Nc2ccc(CCCl)cc2C1=Cc1c(F)cccc1C(F)(F)F [10728/G09] | -8.0

SMILES | Biochem EGFR %Inhibition [%]
Cc1c(Br)ccc2c1C(=Cc1cccnc1)C(=O)N2 [10729/C08] | 25.4
O=C1Nc2ccc(I)cc2C1=Cc1ccncc1 [10729/B09] | 51.6
O=C1Nc2c(Br)cc(Br)cc2C1=Cc1ccc(N2CCCC2)cc1 [10729/A10] | 28.7
O=C1Nc2ccc(I)cc2C1=Cc1ccc2ccccc2c1O [10718/B04] | 8.5
O=C1Nc2c(Br)cc(Br)cc2C1=Cc1ccccn1 [10729/A07] | 49.0
CNS(=O)(=O)c1ccc2c(c1)C(=Cc1ccc(OC)c3ccccc13)C(=O)N2 [10729/D03] | 15.5
Cc1ccsc1C=C1C(=O)Nc2ccc(Br)c(C)c21 [10729/C05] | 21.8
Cc1ccc(C=C2C(=O)Nc3c(Br)cc(Br)cc32)s1 [10717/A07] | 20.2
CNS(=O)(=O)c1ccc2c(c1)C(=Cc1cccc(C(F)(F)F)c1F)C(=O)N2 [10728/D07] | 2.4
Cc1ccsc1C=C1C(=O)Nc2ccc(S(=O)(=O)Nc3ccc(C(F)(F)F)cc3)cc21 [10729/E05] | 12.6
CSc1ccc(C=C2C(=O)Nc3c(Br)cc(Br)cc32)cc1 [10729/A04] | 58.8
Cc1c(Br)ccc2c1C(=Cc1ccccn1)C(=O)N2 [10729/C07] | 60.8
O=C1Nc2ccc(CCCl)cc2C1=Cc1cccc(C(F)(F)F)c1F [10728/G07] | -12.3
CNS(=O)(=O)c1ccc2c(c1)C(=Cc1ccccc1OCC(=O)O)C(=O)N2 [10728/D10] | 18.6
CCOC(=O)c1cc(C=C2C(=O)Nc3ccc(I)cc32)oc1C [10718/B06] | 28.5
O=C1Nc2ccc(S(=O)(=O)Nc3ccc(C(F)(F)F)cc3)cc2C1=Cc1ccc2c(c1)Cc1ccccc1-2 [10728/E06] | -4.7
O=C1Nc2ccc(I)cc2C1=Cc1ccccn1 [10729/B07] | 69.0
CSc1ccc(C=C2C(=O)Nc3ccc(Br)c(C)c32)cc1 [10729/C04] | 35.9
COc1cc(C=C2C(=O)Nc3ccc(CCCl)cc32)cc(OC)c1 [10728/G04] | -8.2
COc1cc(C=C2C(=O)Nc3ccc(S(=O)(=O)Nc4ccc(C(F)(F)F)cc4)cc32)cc(OC)c1 [10728/E04] | 10.1
O=C1Nc2ccc(CCCl)cc2C1=Cc1ccc2c(c1)Cc1ccccc1-2 [10728/G06] | -14.1
O=C1Nc2ccc(I)cc2C1=Cc1ccc(N2CCCC2)cc1 [10729/B10] | 68.3
O=C1Nc2ccc(I)cc2C1=Cc1cccc(Oc2ccccc2)c1 [10729/B06] | 56.9
